Measured values taken from patent US9765115B2, “Inhibitors of metastasis, methods of generating such inhibitors and their therapeutic applications” (Board of Supervisors of Louisiana State University acting …, priority 2011, dated 2017).

Experiments:
[1] = test system: TCF/LEF promoter activity in PC-3 cells; experiment: TCF/LEF luciferase reporter assay (pGL3-OT/pGL3-OF); assay type: cell-based; conditions: 50 nM CT
Protocol: FIG. 28 depicts effect of CT on TCF/LEF promoter activity in PC-3 cells with various compounds added with CT. Cells were seeded into 6-well plates and transfected with the pGL3-OT luciferase/pRL-tK plasmids or pGL3-OF-luciferase/pRL-TK plasmids. The cells were then incubated in complete medium for 48 h, after which they were serum-starved for 16 h. The cells were then treated with CT and/or PMH compounds, and the cell lysates analyzed for luciferase activity. The results are expressed as relative light units (RLU) after normalization with Renilla luciferase activity. The experiment was repeated three separate times, and results expressed as means±S.E.M.
Certain hydantoin-like molecules isolated from sea sponge have been identified that could inhibit prostate cell metastasis (Shah et al., 2009; Mudit et al., 2011). Disruption of junctional complex stabilizes intracellular β-catenin, leading to its translocation in the nucleus, where it can bind to its partner LEF-1 (lymphocyte enhancer binding factor-1) to transactivate target genes. The transcription of TCF/LEF genes can be quantitated by using luciferase-based reporter plasmids, pGL3-OT and pGL3-OF, the improved version of the Topflash and Fopflash vectors (Shah et al., 2009). This assay can be used to comparatively evaluate junction disrupting activity of multiple compounds in a single assay. […] The two compounds, MRM-6 and MRM-4, derivatives of PMH whose structures are shown below, were obtained from Dr. K. A. El Sayed.

[2] = test system: PC-3CTRΔESS cells; experiment: Matrigel in vitro invasion assay; assay type: cell-based; conditions: 50 nM CT, 48 h
Protocol: Invasion experiments were conducted in Matrigel™ invasion chambers as previously described (Sabbisetti et al., 2005).
CT increases invasiveness, and even induces an invasive phenotype in non-invasive prostate cancer cells. The role of PDZ-binding motif in CT-stimulated invasion was examined. FIG. 2C depicts CTR-C PDZ-binding motif mutation and effects on cell invasion. PC-3V, PC-3 CTRwt and PC-3 CTRΔESS cells were added to upper insert of invasion chambers with or without 50 nM CT, and cells that passed through the Matrigel™ barrier were counted after 48 h. The results are expressed as mean number of invaded cells per 400× field ±SEM (n=6; *p<0.05 (PC-3V v PC-3CTR-wt); $ p<0.05 (PC-3CTR-wt v PC-3CTRΔESS); $$-p<0.05 (PC-3CTRwt+CT v PC-3CTRΔESS+CT) (one-way ANOVA and Newman-Keul's test)). Expression of CTRwt in PC-3 cells increased invasion by 2.5-fold (FIG. 2C).

calcitonin [CT]
increase in luciferase activity (RLU) [1]: over 50 fold | increase in invasion [2]: did not
